# Counter-ions that a name gives are not always drawn.
# Key:
# [1] = test system: NCI-N87; experiment: Nuclear cell count growth inhibition, 4 to 8 days (Example 4); assay type: cell-based; settings: Homo sapiens; NCI-N87, Gastric, HER2 High; monotherapy
# Experimental: (§1) Cells grown in their respective conditions were plated in 96-well plates at optimal density to allow linear proliferation for the duration of the assay (4 to 8 days; duration of treatment is dependent on the growth rate of each cell line). Immediately after plating, the cells were dosed with the indicated compounds for a total volume of 200 µL/well and placed in the incubator. Combinations were conducted as a 6 × 8 concentration response matrix for each combination. At the endpoint, the cells were fixed in 2% PFA for 20 minutes at room temperature. In order to obtain the number of cells at the start of treatment, one additional plate was used for each experiment and fixed after cells attached. The cells were then permeabilised in 0.5% Triton-X100 in PBS for 10 minutes. After a PBS wash, the cells were blocked in 5% FBS in PBS 1h at RT and incubated with primary antibodies in 5% FBS + 0.05% triton overnight at 4° C. After 3 washes in PBS cells were incubated with secondary antibodies in 5% FBS + 0.05% triton with Hoechst33258 for 1h at room temperature. After 3 washes in PBS, the cells were scanned with a Cellinsight instrument with a 10× objective and 9 fields/well. Images were analysed using Columbus for cell count based on nuclear Hoechst staining and nuclear intensity of other biomarkers investigated. […]
# [2] = test system: KPL4; experiment: Nuclear cell count growth inhibition / synergy and IF biomarkers, 4 to 8 days (Example 4); assay type: cell-based
# Experimental: (§2) Cells grown in their respective conditions were plated in 96-well plates at optimal density to allow linear proliferation for the duration of the assay (4 to 8 days; duration of treatment is dependent on the growth rate of each cell line). Immediately after plating, the cells were dosed with the indicated compounds for a total volume of 200 µL/well and placed in the incubator. Combinations were conducted as a 6 × 8 concentration response matrix for each combination. At the endpoint, the cells were fixed in 2% PFA for 20 minutes at room temperature. In order to obtain the number of cells at the start of treatment, one additional plate was used for each experiment and fixed after cells attached. The cells were then permeabilised in 0.5% Triton-X100 in PBS for 10 minutes. After a PBS wash, the cells were blocked in 5% FBS in PBS 1h at RT and incubated with primary antibodies in 5% FBS + 0.05% triton overnight at 4° C. After 3 washes in PBS cells were incubated with secondary antibodies in 5% FBS + 0.05% triton with Hoechst33258 for 1h at room temperature. After 3 washes in PBS, the cells were scanned with a Cellinsight instrument with a 10× objective and 9 fields/well. Images were analysed using Columbus for cell count based on nuclear Hoechst staining and nuclear intensity of other biomarkers investigated. The total cell count/well was used to calculate the relative growth in each well compared to solvent control. […] The mean/well of the sum of the nuclear intensity of the IF biomarkers was also expressed relative to solvent control.
# [3] = test system: MDA-MB-468; experiment: as above; assay type: cell-based
# Experimental: as §2
# [4] = test system: JIMT-1; experiment: Nuclear cell count growth inhibition / synergy, 4 to 8 days (Example 4); assay type: cell-based; settings: Homo sapiens; JIMT-1, Breast, HER2 Expressed; monotherapy
# Experimental: as §1
# [5] = test system: SK-OV-3; experiment: as above; assay type: cell-based; settings: Homo sapiens; SK-OV-3, Ovarian, HER2 Moderate; monotherapy
# Experimental: as §1
# [6] = test system: NCI-N87 tumors implanted subcutaneously; experiment: NCI-N87 xenograft tumor growth inhibition (Example 5); assay type: in vivo, Female Nude mice; settings: AZD6738 25 mg/kg PO BID (14 d-on/14-d off); day 40 post treatment
# [7] = test system: ATR pathway in KPL4 (breast carcinoma) cells; experiment: Antibody blots of ATR signaling (Example 6); assay type: cell-based
# Experimental: (§3) Gastric cancer NCI-N87 and breast carcinoma KPL4 cell lines were cultured in RPMI 1640 supplemented with 10 % FCS in a humidified incubator at 37° C. with 5% CO2. Cells were plated in 6-well plates at optimal density to allow linear proliferation for the duration of the assay. […] 7 h, 24 h or 48 h after dosing, whole-cell extracts were obtained by lysis in 50 mM Tris-HC1 pH 7.5, 2% SDS containing protease and phosphatase inhibitors. Lysates were boiled for 5 minutes at 95° C. Protein concentration was measured using a Nanodrop at […] and 50 µg of lysate were loaded in 4-12% Bis Tris gels. Proteins were transferred using iblot2. Primary antibodies (see Table 7) were incubated overnight at 4° C. in 3% milk TBS-tween 0.05% and HRP-conjugated secondary antibodies for 1h at room temperature. Blots were imaged using a G-box.
# [8] = test system: ATR pathway in NCI-N87 (gastric cancer) cells; experiment: Antibody blots of ATR signaling (Example 6); assay type: cell-based
# Experimental: as §3
# [9] = test system: DU145-SLFN11 KO (CRISPR-Cas9 gene knockout of SLFN11); experiment: Nuclear cell count growth inhibition, 4 to 8 days (Example 4); assay type: cell-based; settings: Prostate, HER2 Low, monotherapy
# Experimental: as §1
# [10] = AZD6738 at 1 µM in combination with DS-8201 or exatecan mesylate
# [11] = DS-8201 at 30 µg/mL or exatecan mesylate alone, 7 h, 24 h or 48 h
SMILES,GI50 [1],"GI50 ([2]; KPL4, Breast, HER2 High, monotherapy)","GI50 ([3]; Homo sapiens, MDA-MB-468, Breast, HER2 Low, monotherapy)",GI50 [4],GI50 [5],Best response %TGI/regression (maximum TGI) [6],Activation of pATR and pChk1 and cell cycle arrest induced by DS-8201 or exatecan mesylate ([7]; AZD6738 at 1 µM in combination),"Cell death (cCasp3) [7, 10]","DNA damage (pKap1, gH2AX) [7, 10]",Activation of pATR and pChk1 and cell cycle arrest induced by DS-8201 or exatecan mesylate ([8]; AZD6738 at 1 µM in combination),"Cell death (cCasp3) [8, 10]","DNA damage (pKap1, gH2AX) [8, 10]",GI50 [9],"Biomarkers of ATM (KAP1 pSer824) activation and DNA strand breaks (γH2AX) ([2]; KPL4, single agent)","Combination activity with AZD6738 (in words) ([2]; high-HER2 KPL4, in combination with AZD6738, clinically relevant concentrations)","Combination activity with AZD6738 (in words) ([3]; HER2-negative MDA-MB-468, in combination with AZD6738)","ATR pathway (pATR-T1989, pChk1-S345) and cell cycle arrest (pCdc2-Y15) [7, 11]","ATR pathway (pATR-T1989, pChk1-S345) and cell cycle arrest (pCdc2-Y15) [8, 11]"
"C[C@@H]1COCCN1c1cc(C2([S@](C)(=N)=O)CC2)nc(-c2ccnc3[nH]ccc23)n1 [AZD6738, 4-{4-[(3R)-3-methylmorpholin-4-yl]-6-[1-((R)-S-methylsulfonimidoyl)cyclopropyl]pyrimidin-2-yl}-1H-pyrrolo[2,3-b]pyridine]",0.436 µM,> 3 µM,2.07 µM,0.788 µM,1.01 µM,62%,inhibited the activation of pATR and pChk1 and cell cycle arrest,increased cell death,exacerbating the DNA damage,inhibited the activation of pATR and pChk1 and cell cycle arrest,increased cell death,exacerbating the DNA damage,,,,,,
"CC[C@@]1(O)C(=O)OCc2c1cc1n(c2=O)Cc2c-1nc1cc(F)c(C)c3c1c2[C@@H](N)CC3 [Exatecan mesylate, (1S,9S)-1-amino-9-ethyl-5-fluoro-1,2,3,9,12,15-hexahydro-9-hydroxy-4-methyl-10H,13H-benzo[de]pyrano[3′,4′:6,7]indolizino[1,2-b]quinolin-10,13-dione, reference compound]",,,,,,,,,,,,,0.00045 µM,induced in a concentration dependent manner,synergistic activity and cell death,still showed combination activity,induced activation of the ATR pathway,induced activation of the ATR pathway
